The record followed here is patent publication US7012098B2, “Inhibitors of inducible nitric oxide synthase for chemoprevention and treatment of cancers” (Pharmacia Corporation, priority 2001, dated 2006).

SMILES strings stand for the structures. Counter-ions that a name gives are not always drawn. Like-named read-outs stand apart in the source and are kept apart here.

Series [1] has as its target iNOS (Rattus norvegicus, UniProt Q06518). The series can be described thus: Colonic mucosal iNOS activity after dietary treatment. Format: in vivo, male F344 rats. The method, then:
In Vivo Assay of Modulation of Colonic Mucosal Activities of NOS and COX isoforms by iNOS and COX-2 Inhibitors
NOS and iNOS activities were determined in colonic samples as prepared and described above. Conversion of L-arginine to L-citrulline was measured by a modification of an earlier described method (Rao et al, Carcinogenesis 21, supra; Ambs et al., Cancer Res. 58:334-41, 1998, which is herein incorporated by reference). The assay was carried out by adding 100 μg sample protein to 150 μl of assay buffer [50 mM HEPES, 1 mM DTT, 1 mM MgCl2, 5 mg/L pepstatin A, 0.1 mM PMSF, and 3 mg/L aprotinin, pH 7.4] containing 70 μM arginine, 250,000 dpm L-[^3H]-arginine, 2 mM NADPH, 5μM tetrahydro biopterin, 5 μM flavin adenine dinucleotide, and 0.5 mM CaCi2 to measure total NOS activity, or 1 mM EGTA (without calcium) to determine Ca+^2-independent iNOS activity. After 30 min at 37° C., the reaction was stopped with 100 μl of 1M trichloroacetic acid. Then the samples were adjusted to pH 4.6 by adding 500 μl of 20 mM HEPES and loaded on to Dowex AG 50W-X8 resin columns. L-[^3H]-citrulline was eluted and separated on TLC. Radioactivity was counted by a BioScan Radiomatic detector. Results are expressed as pmol L-[^3H]-citrulline released/mg protein/min.

Series [2] concerns the target T1, COX-1 (Rattus norvegicus, UniProt Q63921).
T1 sequence (Q63921 27-602): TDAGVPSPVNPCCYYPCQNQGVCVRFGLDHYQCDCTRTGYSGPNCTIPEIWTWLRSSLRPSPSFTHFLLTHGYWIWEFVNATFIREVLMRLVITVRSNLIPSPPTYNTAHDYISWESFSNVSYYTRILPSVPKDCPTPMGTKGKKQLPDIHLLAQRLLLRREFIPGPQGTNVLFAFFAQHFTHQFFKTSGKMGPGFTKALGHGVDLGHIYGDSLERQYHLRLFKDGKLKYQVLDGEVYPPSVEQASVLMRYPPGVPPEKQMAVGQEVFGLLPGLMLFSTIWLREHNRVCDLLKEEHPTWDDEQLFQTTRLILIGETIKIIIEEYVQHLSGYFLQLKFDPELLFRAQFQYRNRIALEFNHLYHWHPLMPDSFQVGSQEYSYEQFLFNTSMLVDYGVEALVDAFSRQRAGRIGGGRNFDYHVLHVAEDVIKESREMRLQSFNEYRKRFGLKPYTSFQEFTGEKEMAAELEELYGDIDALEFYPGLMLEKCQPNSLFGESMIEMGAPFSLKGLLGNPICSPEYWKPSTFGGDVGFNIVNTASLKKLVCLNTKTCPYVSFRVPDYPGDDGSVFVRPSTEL
Briefly: Colonic mucosal COX-1 activity after dietary treatment. Particulars: 100 ppm in diet; AOM-treated rats, colonic mucosa; Mean ± SEM. In kind it is in vivo, male F344 rats. The method, then:
For determining COX-2 activity, proteins were preincubated with 50 μM of aspirin to block the activity of COX-1. After incubation at 37° C. for 15 min, the reaction was terminated by adding 40 μl of 0.2 M HCl. The COX-mediated metabolites of arachidonic acid were extracted with ethyl acetate (3×0.5 ml). The combined extracts were evaporated to dryness under N2, redissolved in chloroform, and subjected to thin layer chromatography on precoated TLC plastic plates (silica G 60, 20×20 cm, layer thickness 150 μm). […] The metabolites of ^14C-AA corresponding to PGE2, PGF2α, PGD2, 6-Keto PGF1α, and TXB2 were detected by their comigration (Rf-values) with authentic standards. The area of each metabolite was determined in a Bioscan System 200 image scanning counter (Bioscan Inc., Washington, D.C.) equipped with β-detector.
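For Plasma level in this document: plasma drug concentrations quantified by liquid chromatography with tandem mass spectrometry following solid phase extraction, reported as mean ± SEM.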
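For Plasma level of compound XI in this document: plasma drug concentrations quantified by liquid chromatography with tandem mass spectrometry following solid phase extraction, reported as mean ± SEM.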
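For absorption in this document: plasma drug concentrations quantified by liquid chromatography with tandem mass spectrometry following solid phase extraction, reported as mean ± SEM.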

On to `CC(=N)NCCCC[C@H](N)C(=O)Nc1nnn[nH]1` [compound XI, 2S-amino-6-[(1-iminoethyl)amino]-N-(1H-tetrazol-5-yl)hexanamide, hydrate, dihydrochloride], for which the “suppression of AOM-induced colonic mucosal iNOS activity” value in series [1] (100 ppm) is approximately 37%. Moreover, the “NOS Activity, iNOS” value in series [1] (100 ppm in diet, AOM-treated rats, colonic mucosa, Mean ± SEM) was 1.6 ± 0.2 pmoles [^3H]-citrulline/mg pro. The “COX-Activity, COX-1” value in series [2] was 11.3 ± 1.4 pmoles [^14C]-AA metabolized/m. Besides, the absorption entry (3 dose levels (10, 30, 100 ppm in diet)) is “Dose-dependant”. Moreover, the Plasma level reads like this: (10 ppm in diet, Early, One week on diet, Mean ± SEM, hydrate, dihydrochloride) 461 ± 15 ηg/mI; (10 ppm in diet, Late, 9 weeks on diet, Mean ± SEM, hydrate, dihydrochloride) 254 ± 13 ηg/mI; (10 ppm in diet, Mid, 5 weeks on diet, Mean ± SEM, hydrate, dihydrochloride) 341 ± 9.7 ηg/mI; (30 ppm in diet, first of 3 time points) 1315 ηg/ml; (30 ppm in diet, second of 3 time points) 821 ηg/ml; (30 ppm in diet, third of 3 time points) 742 ηg/ml. Moreover, the Plasma level is on record as 4306 ± 146 ηg/mI (100 ppm in diet, Early, One week on diet, Mean ± SEM, hydrate, dihydrochloride); 2639 ± 268 ηg/mI (100 ppm in diet, Late, 9 weeks on diet, Mean ± SEM, hydrate, dihydrochloride); 2811 ± 82 ηg/mI (100 ppm in diet, Mid, 5 weeks on diet, Mean ± SEM, hydrate, dihydrochloride). Further, the “Plasma level of compound XI” value is, setting by setting: (30 ppm compound XI + 500 ppm Celecoxib in diet, Early, One week on diet) 1240 ± 37 + ηg/mI; (30 ppm compound XI + 500 ppm Celecoxib in diet, Late, 9 weeks on diet) 788 ± 63 ηg/mI; (30 ppm compound XI + 500 ppm Celecoxib in diet, Mid, 5 weeks on diet) 901 ± 5.0 + ηg/mI; (100 ppm compound XI + 500 ppm Celecoxib in diet, Early, One week on diet) 4370 ± 112 + ηg/mI; (100 ppm compound XI + 500 ppm Celecoxib in diet, Late, 9 weeks on diet) 2477 ± 204 + ηg/mI; (100 ppm compound XI + 500 ppm Celecoxib in diet, Mid, 5 weeks on diet) 3096 ± 344 + ηg/mI.
